Data taken from patent US4816447A, “Anti-viral guanine compounds” (priority 1984, dated 1989).

What was measured:
[1] = system: guanosine monophosphate kinase and extract of HSV1-infected HeLa cells; format: biochemical; conditions: gmp kinase, 4 h
Protocol: To the rest of the incubation mixtures were now added 0.04 units of guanosine monophosphate kinase and 20 μl of an extract of HSV1-infectedHeLa cells [The cells were infected with the virus at a multiplicity of 10 and harvested 8 hours later; they were suspended in a solution containing 0.35M KH2 PO4, pH 7.5, 0.5 mM dithiothreitol, 0.2% polyoxyethylene(9)octylphenol (Nonidet P-40), 14% glycerol at 50 mg/ml and after 30 minutes at 4° were centrifuged at […]; the supernatant liquid was the crude extract.] Incubation was continued at 30° for 4 more hours, after which samples were analyzed by HPLC and the amount of the triphosphate derivatives of each compound determined by integration of the area under the respective chromatographic peak.

Epstein-Barr virus (EBV) = assay: Human cord blood lymphocyte transformation assay; format: cell-based, Epstein-Barr (B95-8); human cord blood lymphocytes; conditions: human gammaherpesvirus 4, B-95-8; B95-8, lymphocyte transformation; read-out: Minimum Effective Concentration
From the text: ^c Human cord blood lymphocyte transformation assay.

[2] = system: Herpes simplex virus type 2 (Strain Curtis); assay: Vaginal Herpes simplex virus type 2 infection in mice, oral treatment (Table XII); format: in vivo, Herpes simplex virus type 2; ICR/Ha female mice; conditions: for Percent Survival: at 19 days
Protocol: Groups of 10 animals were treated twice daily for ten days by oral gavage using acycloquanosine or the compound of formula II at final daily doses of 50, 12.5, 3.1, 0.8 or 0.2 mg/kg starting immediately following infection. The average number of days to infection and the average days of survival were determined for each group and compared to an infected, placebo-treated group.

[3] = system: Herpes simplex virus type 1 (Strain S); assay: Orofacial Herpes simplex virus type 1 infection in mice, therapeutic oral treatment (Table XIV); format: in vivo, Herpes simplex virus type 1; HRS (hairless) mice; conditions: for Lesion Incidence (%) / Lesion Incidence (number/Total) / Lesion Severity (scale 0 to 4): 12.5 mg/kg/day oral
Protocol: Twenty gram HRS (hairless) mice were infected on the abraded orofacial area with Herpes simplex virus type 1 (Strain S).
a. Groups of 10 infected animals were treated twice daily by oral gavage for up to 7 days with the compound of formula II at 12.5 mg/kg/day, starting 3, 8, 12, 24, 48, 72, or 96 hours after infection. […]
At 7 days after initiation of infection, the extent of lesion development in the orofacial area was measured on a scale of 0 (no lesions) to 4 (massive lesions over the entire snout).

HSV-2 [4] = assay: Vaginal HSV-2 infection in mice, oral treatment (Table VI); format: in vivo, HSV-2; ICR/Ha mice; conditions: Human alphaherpesvirus 2; vaginal infection, oral treatment; read-out: Min. Effective Dose
HSV-1 = assay: Orofacial HSV-1 infection of hairless mice, oral or topical treatment (Table VI); format: in vivo, HSV-1; HRS mice; conditions: orofacial infection
HSV-2 [5] = assay: Therapeutic efficacy against vaginal HSV-2 infection of mice (Table VII); format: in vivo, HSV-2; mice; conditions: for Survivors/Total: 0.55 μmoles oral gavage twice daily
Protocol: d. HSV-2 vaginal infection in mice is progressive from local acute infection of the genital area to limb paralysis and eventual death. This is a consistent, reproducible model, but is more virulent and progressive than the human genital disease. Drug efficacy is determined ultimately by extension of animal survival time, and also by the limitation of progression of disease from acute local through paralysis to death. Animals are challenged using in excess of 10 lethal equivalent doses of HSV-2. This model was used to evaluate dosing by oral gavage.

[6] = treatment initiated 24 hrs after infection
[7] = treatment initiated 48 hrs after infection
[8] = treatment initiated 72 hrs after infection

Structure (SMILES): Nc1nc2c(ncn2COCCO)c(=O)[nH]1 [Acycloguanosine, 9-(2-hydroxyethoxymethyl)guanine, reference compound]
- converted to the triphosphate [1]: 31%
- minimal effective concentration (Epstein-Barr virus (EBV)): 10 to 100 µg/mL
- Avg. Survival Time ([2]; 0.2 mg/kg/day oral): 8.8 days
- Percent Survival ([2]; 0.2 mg/kg/day oral): 0%
- Percent Survival ([2]; 0.8 mg/kg/day oral): 10%
- Percent Survival ([2]; 3.1 mg/kg/day oral): 20%
- Avg. Survival Time ([2]; 12.5 mg/kg/day oral): 14.1 days
- Percent Survival ([2]; 12.5 mg/kg/day oral): 40%
- number of days to infection vs placebo ([2]; 50 mg/kg and 12.5 mg/kg): statistically significant increases in the number of days to infection
- Avg. Survival Time ([2]; 50 mg/kg/day oral): 17.6 days
- Percent Survival ([2]; 50 mg/kg/day oral): 60%
- survival time vs placebo ([2]; 50 and 12.5 mg/kg): similarly effective
- survival vs placebo ([2]; only 50 mg/kg): statistically significant enhanced survival
- Lesion Incidence (%) ([3]; start 3 hours post infection): 100%
- Lesion Incidence (number/Total) ([3]; start 3 hours post infection): 10/10
- Lesion Severity (scale 0 to 4) ([3]; start 3 hours post infection): 2.80
- Lesion Incidence (%) ([3]; start 8 hours post infection): 100%
- Lesion Incidence (number/Total) ([3]; start 8 hours post infection): 10/10
- Lesion Severity (scale 0 to 4) ([3]; start 8 hours post infection): 2.95
- Lesion Incidence (%) ([3]; start 12 hours post infection): 90%
- Lesion Incidence (number/Total) ([3]; start 12 hours post infection): 9/10
- Lesion Severity (scale 0 to 4) ([3]; start 12 hours post infection): 3.30
- Lesion Incidence (%) ([3]; start 24 hours post infection): 90%
- Lesion Incidence (number/Total) ([3]; start 24 hours post infection): 9/10
- Lesion Severity (scale 0 to 4) ([3]; start 24 hours post infection): 2.85
- Lesion Incidence (%) ([3]; start 48 hours post infection): 80%
- Lesion Incidence (number/Total) ([3]; start 48 hours post infection): 8/10
- Lesion Severity (scale 0 to 4) ([3]; start 48 hours post infection): 2.85
- Lesion Incidence (%) ([3]; start 72 hours post infection): 90%
- Lesion Incidence (number/Total) ([3]; start 72 hours post infection): 9/10
- Lesion Severity (scale 0 to 4) ([3]; start 72 hours post infection): 3.60
- Lesion Incidence (%) ([3]; start 96 hours post infection): 100%
- Lesion Incidence (number/Total) ([3]; start 96 hours post infection): 7/7
- Lesion Severity (scale 0 to 4) ([3]; start 96 hours post infection): 4.00
- incidence of lesions vs placebo ([3]; all start times): None of the acycloguanosine treated groups had a significantly lower incidence of lesions
- lesion scores vs placebo ([3]; only start 3 hours after infection): statistically different in lesion score
- minimal effective dose (HSV-2 [4]): 12.5 to 50 mg/kg/day
- minimal effective dose (HSV-1; Human alphaherpesvirus 1, oral treatment, read-out: Min. Effective Dose): 12.5 mg/kg/day
- Min. Effective Dose (HSV-1; topical treatment): 0.25-1.0%
- Survivors/Total (HSV-2 [5]; treatment initiated 0 hrs after infection): 1/10
- Avg. Survival Days (confidence interval) (HSV-2 [5]; [6]): 12.1 (8.8, 17.3) Days
- Survivors/Total (HSV-2 [5]; [6]): 3/10
- Avg. Survival Days (confidence interval) (HSV-2 [5]; [7]): 12.4 (8.2, 20.7) Days
- Survivors/Total (HSV-2 [5]; [7]): 5/10
- Avg. Survival Days (confidence interval) (HSV-2 [5]; [8]): 9.0 (7.1, 11.3) Days
- Survivors/Total (HSV-2 [5]; [8]): 1/10
- therapeutic effectiveness, treatment initiated up to 72 hours after infection (HSV-2 [5]; vaginal HSV-2): ineffective
